# Reference: patent US9463204B2, “Method for inducing differentiation enabling tumorigenesis of IPS cells to be suppressed” (Osaka University, priority 2011, dated 2016)
# Entries after “also recorded” stand apart in the source; their conditions may differ.
# Test system: mouse iPS cells
# Assay: Tumorigenesis suppression effects of statins versus phenamil (osteoblasts from iPS cell aggregates transplanted under mouse dorsal skin)
# Assay type: in vivo
# Experimental: Statins are also known as compounds that promote osteoblast differentiation induction, and have the effect of differentiating iPS cells into osteoblasts. Osteoblasts obtained by inducing differentiation in the presence of an osteoblast differentiation induction promoter (phenamil 1 μM) that was not a statin (HMG-CoA reductase inhibitor) were used as a control.
# Osteoblasts obtained by inducing differentiation for 30 days in the presence of a statin or phenamil were transplanted under mouse dorsal skin (both sides).
compound,measurement,setting,value
NC(=Nc1ccccc1)NC(=O)c1nc(Cl)c(N)nc1N [phenamil],tumor formation after transplantation (FIG. 7),"1 μM compound in osteoblast differentiation-inducing medium for 30 days, 28 days after transplantation under mouse dorsal skin",a tumor was formed; also recorded: no tumor formation suppression effect was observed
same,"tissue other than bone tissue (tumorigenesis/teratoma) around the grafts (H&E, FIG. 8)","1 μM compound, 30 days differentiation induction, grafts extracted after 28 days",formation of tissue other than bone tissue (teratoma) was observed
